Data: patent US10842892B2, “Methods and apparatus for synthesizing imaging agents, and intermediates thereof” (Lantheus Medical Imaging, Inc., priority 2010, dated 2020)

Legend:
[1] = test system: stress induced myocardial perfusion abnormalities; assay: rest-stress imaging agent 1 PET versus Tc-99m Sestamibi SPECT MPI, single center; type: in vivo, human; conditions: myocardial segments supplied by diseased coronary arteries, 13 patients
Procedure: Thirteen patients, from a single center, underwent rest-stress Tc-99m Sestamibi SPECT MPI, rest-stress imaging agent 1 PET MPI and coronary angiography. In each patient, 17 myocardial segments were visually scored for rest and stress images by independent observers who were blinded to all other results. For each patient, summed stress scores (SSS), summed rest scores (SRS), and summed difference scores (SDS) were determined from segmental scores. Percent narrowing in each coronary artery was evaluated blindly and 70% luminal diameter narrowing was considered significant.

myocardial ischemia = assay: imaging agent 1 and ^82Rb PET versus ^99mTc sestamibi SPECT, perfusion defect assessment (phase II); type: in vivo, human
Procedure: Twenty-six patients (20 men) who underwent ^99mTc sestamibi SPECT and imaging agent 1 PET within 6 months at a single center in a phase II clinical trial were compared to 23 patients (matched by summed difference score (SDS) on SPECT) who underwent ^99mTc sestamibi SPECT and ^82Rb PET (25-50 mCi) within 6 months without change in clinical state. PET was performed with imaging agent 1 at rest (2.3-3.9 mCi) followed 60 min or 24 h later with exercise or adenosine stress (7.3-8.6 mCi). Perfusion defects on SPECT and PET were assessed by computer-assisted visual interpretation, using the standard 17 segment, 5 point-scoring model (0=normal; 4=absent uptake). The extent and severity of ischemia (SDS) was derived from the difference between summed stress score (SSS) and summed rest scores (SRS).
Twenty six patients (20 men) underwent SPECT and PET within 6-months. PET was performed with imaging agent 1 at rest (2.3-3.9 mCi) followed 60 min (n=18) or 24 h (n=8) later with exercise (n=16) or adenosine (n=10) stress (7.3-8.6 mCi). Image quality of SPECT and PET was consensually assessed by 2 independent blinded readers and graded as excellent, good, or fair. Stress and rest perfusion defects on SPECT and PET were assessed by the same readers by computer-assisted visual interpretation, using the standard 17 segment, 5 point-scoring model (0=normal; 4=absent uptake). The extent and severity of ischemia (summed difference score (SDS)) was derived from the difference between summed stress (SSS) and summed rest scores (SRS). Image quality with PET was excellent in 24 and good in 2 patients. In contrast, there were 7 excellent, 18 good, and 1 fair quality study, p<0.001 by SPECT. In 14 patients with abnormal SPECT (SSS≥4), mean SDS was greater with PET than with SPECT (9.6±1.8 vs. 5.4±0.7, p=0.02). In all 12 patients with normal SPECT (SSS<4), SDS was zero by PET and SPECT.

[2] = test system: blood brain barrier (BBB); assay: brain uptake with and without blood brain barrier disruption; type: in vivo, rat
Procedure: Male Sprague-Dawley rats were anesthetized with sodium pentobarbital and the left external carotid artery was cannulated close to the internal and external carotid bifurcation. Using saline as control and 25% D-mannitol as hypertonic solution, each were perfused retrogradely in six animals (0.3 mL/kg/sec) for 30 seconds. Two minutes later, ˜1 mCi imaging agent 1 was injected via tail vein and the brain was imaged with a microPET camera for 30 minutes. […] Following completion of imaging, the brain was harvested, photographed and dissected into left and right hemispheres and cerebellum. The tissue content of imaging agent 1 radioactivity was measured by gamma counter and Evans blue levels were determined by fluorescence method for calculation of the % injected dose/gram tissue and μg Evan blue/gram tissue, respectively.

[3] = matched group of 13 patients with abnormal SPECT (^82Rb PET group)
[4] = 25% D-mannitol compared to saline control

Compound	SDS [1]	SRS [1]	SSS [1]	SDS (myocardial ischemia; 12 patients with normal SPECT (SSS<4))	mean SDS (summed difference score) (myocardial ischemia; 14 patients with abnormal SPECT (SSS≥4))	image quality excellent, number of patients (myocardial ischemia; 26 patients, 2 blinded readers)	image quality fair, number of patients (myocardial ischemia; 26 patients, 2 blinded readers)	image quality good, number of patients (myocardial ischemia; 26 patients, 2 blinded readers)	mean SDS (summed difference score) (myocardial ischemia; [3])	increase in uptake, cerebellum [2, 4] [%]	increase in uptake, left hemisphere [2, 4] [%]	increase in uptake, right hemisphere [2, 4] [%]	Brain uptake, cerebellum ([2]; BBBD (25% D-mannitol) rats) [µg/g]	Brain uptake, left hemisphere ([2]; BBBD (25% D-mannitol) rats) [µg/g]	Brain uptake, right hemisphere ([2]; BBBD (25% D-mannitol) rats) [µg/g]	Brain uptake, cerebellum ([2]; control (saline) rats) [µg/g]	Brain uptake, left hemisphere ([2]; control (saline) rats) [µg/g]	Brain uptake, right hemisphere ([2]; control (saline) rats) [µg/g]	differences in SDS, PET compared to SPECT (myocardial ischemia; patients with normal SPECT (SSS<4))
[C-]#[N+]CC(C)(C)OC.[C-]#[N+]CC(C)(C)OC.[C-]#[N+]CC(C)(C)OC.[C-]#[N+]CC(C)(C)OC.[C-]#[N+]CC(C)(C)OC.[C-]#[N+]CC(C)(C)OC.[Tc] [^99mTc sestamibi]	5.4 ± 4.2	3.1 ± 3.3	8.6 ± 5.8	zero	5.4±0.7	7	1	18	4.6±1.3	–	–	–	–	–	–	–	–	–	–
Cc1cc(-c2ccc(/N=N/c3ccc4c(S(=O)(=O)O)cc(S(=O)(=O)O)c(N)c4c3O)c(C)c2)ccc1/N=N/c1ccc2c(S(=O)(=O)O)cc(S(=O)(=O)O)c(N)c2c1O [Evans blue]	–	–	–	–	–	–	–	–	–	186	633	216	83 ± 12	154 ± 13	60 ± 8	29 ± 4	21 ± 2	19 ± 2	–
[82Rb+].[Cl-] [^82Rb, rubidium-82 (^82Rb) chloride]	–	–	–	–	–	–	–	–	4.9±1.4	–	–	–	–	–	–	–	–	–	no differences
